Assay results from the supplement of paper PMC12463676, “Small-molecule dissolution of stress granules by redox modulation benefits ALS models” (Nature Chemical Biology, 2025).

Columns and labels:
potassium arsenate = compound: O=[As]([O-])(O)O.[K+] [potassium arsenate]; assay: thermal stability z-score vs DMSO; higher = more thermally stabilized by treatment; details: HeLa; arsenate concentration 1 mM
Description: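 Cellular thermal proteome profiling in HeLa cells treated with 1 mM arsenate for 1 h (DMSO pretreatment), heated to ten temperatures (37-66.3 °C). Soluble protein was quantified by TMT mass spectrometry relative to DMSO controls; the thermal stability score was transformed to a z-score; mean of n = 3 experiments.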

lipoamide = compound: NC(=O)CCCCC1CCSS1 [lipoamide]; assay: as above; details: HeLa, lipoamide concentration 100 µM
Description: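 Cellular thermal proteome profiling in HeLa cells. Cells were treated with 100 µM lipoamide for 1 h, with or without 1 mM arsenate for a further 1 h, then heated to ten temperatures (37-66.3 °C), and soluble protein was quantified by TMT mass spectrometry relative to 0.1% DMSO controls. The thermal stability score (sum of log2 fold changes minus the abundance score) was transformed to a z-score; mean of n = 3 experiments.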

[1] = arsenate co-treatment: 1 mM arsenate 1 h
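Also: each temperature applied for 3 min, abundance score taken as mean log2 fold change at the two lowest temperatures, z-score obtained by mean subtraction and division by SD.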

UniProt Q9UBT7, sequence (Q9UBT7 whole entry): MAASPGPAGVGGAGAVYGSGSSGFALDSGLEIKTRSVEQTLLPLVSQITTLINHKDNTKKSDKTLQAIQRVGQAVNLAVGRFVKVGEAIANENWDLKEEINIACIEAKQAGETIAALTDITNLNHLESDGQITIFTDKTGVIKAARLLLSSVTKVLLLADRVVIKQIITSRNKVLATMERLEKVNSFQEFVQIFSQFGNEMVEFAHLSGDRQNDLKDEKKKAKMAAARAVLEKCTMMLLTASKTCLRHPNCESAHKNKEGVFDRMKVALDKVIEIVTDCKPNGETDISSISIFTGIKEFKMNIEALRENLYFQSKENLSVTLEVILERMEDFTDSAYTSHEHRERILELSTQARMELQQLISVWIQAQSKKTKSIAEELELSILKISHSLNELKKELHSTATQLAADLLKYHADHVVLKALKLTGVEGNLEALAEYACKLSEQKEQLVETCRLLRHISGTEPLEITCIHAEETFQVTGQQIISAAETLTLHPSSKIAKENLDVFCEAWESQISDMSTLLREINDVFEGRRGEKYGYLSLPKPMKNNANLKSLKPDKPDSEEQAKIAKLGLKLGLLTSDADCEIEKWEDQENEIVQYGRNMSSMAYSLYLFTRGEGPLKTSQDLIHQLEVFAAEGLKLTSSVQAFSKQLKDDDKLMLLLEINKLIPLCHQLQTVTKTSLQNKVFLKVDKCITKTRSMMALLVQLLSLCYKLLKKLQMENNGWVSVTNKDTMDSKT
UniProt Q03154, sequence (Q03154 whole entry): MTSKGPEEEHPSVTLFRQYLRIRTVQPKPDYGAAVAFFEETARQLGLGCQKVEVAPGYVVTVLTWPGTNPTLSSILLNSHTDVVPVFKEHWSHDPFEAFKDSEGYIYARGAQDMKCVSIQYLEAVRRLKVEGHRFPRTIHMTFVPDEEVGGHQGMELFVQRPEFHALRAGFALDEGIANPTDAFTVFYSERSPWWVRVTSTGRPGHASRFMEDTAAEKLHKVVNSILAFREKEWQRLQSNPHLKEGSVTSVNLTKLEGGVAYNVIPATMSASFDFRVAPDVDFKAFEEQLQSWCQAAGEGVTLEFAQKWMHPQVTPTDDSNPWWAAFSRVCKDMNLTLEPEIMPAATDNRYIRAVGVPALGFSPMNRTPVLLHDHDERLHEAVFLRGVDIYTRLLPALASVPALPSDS
UniProt O00330, sequence (O00330 whole entry): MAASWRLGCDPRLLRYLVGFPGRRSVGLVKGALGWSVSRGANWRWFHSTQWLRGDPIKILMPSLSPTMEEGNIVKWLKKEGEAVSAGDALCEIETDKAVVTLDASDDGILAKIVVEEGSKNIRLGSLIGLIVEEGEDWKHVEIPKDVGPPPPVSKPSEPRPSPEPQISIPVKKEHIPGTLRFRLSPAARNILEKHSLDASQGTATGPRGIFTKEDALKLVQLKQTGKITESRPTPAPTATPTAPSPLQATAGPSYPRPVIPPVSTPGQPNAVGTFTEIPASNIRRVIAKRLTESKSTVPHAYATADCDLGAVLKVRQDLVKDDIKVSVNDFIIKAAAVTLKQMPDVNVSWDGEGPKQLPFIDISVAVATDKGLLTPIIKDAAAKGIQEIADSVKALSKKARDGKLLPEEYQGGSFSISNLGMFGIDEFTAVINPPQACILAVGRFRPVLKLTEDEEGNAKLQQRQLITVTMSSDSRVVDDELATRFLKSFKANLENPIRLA
UniProt Q96CN7, sequence (Q96CN7 whole entry): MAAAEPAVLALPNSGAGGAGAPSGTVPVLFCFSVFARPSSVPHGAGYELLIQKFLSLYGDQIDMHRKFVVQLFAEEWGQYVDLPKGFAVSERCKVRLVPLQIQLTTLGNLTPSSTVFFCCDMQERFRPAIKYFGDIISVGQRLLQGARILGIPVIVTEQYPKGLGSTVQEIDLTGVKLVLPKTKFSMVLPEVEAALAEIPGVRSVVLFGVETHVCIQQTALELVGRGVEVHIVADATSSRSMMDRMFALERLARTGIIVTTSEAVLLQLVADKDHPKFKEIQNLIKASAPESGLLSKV
UniProt O94776, sequence (O94776 whole entry): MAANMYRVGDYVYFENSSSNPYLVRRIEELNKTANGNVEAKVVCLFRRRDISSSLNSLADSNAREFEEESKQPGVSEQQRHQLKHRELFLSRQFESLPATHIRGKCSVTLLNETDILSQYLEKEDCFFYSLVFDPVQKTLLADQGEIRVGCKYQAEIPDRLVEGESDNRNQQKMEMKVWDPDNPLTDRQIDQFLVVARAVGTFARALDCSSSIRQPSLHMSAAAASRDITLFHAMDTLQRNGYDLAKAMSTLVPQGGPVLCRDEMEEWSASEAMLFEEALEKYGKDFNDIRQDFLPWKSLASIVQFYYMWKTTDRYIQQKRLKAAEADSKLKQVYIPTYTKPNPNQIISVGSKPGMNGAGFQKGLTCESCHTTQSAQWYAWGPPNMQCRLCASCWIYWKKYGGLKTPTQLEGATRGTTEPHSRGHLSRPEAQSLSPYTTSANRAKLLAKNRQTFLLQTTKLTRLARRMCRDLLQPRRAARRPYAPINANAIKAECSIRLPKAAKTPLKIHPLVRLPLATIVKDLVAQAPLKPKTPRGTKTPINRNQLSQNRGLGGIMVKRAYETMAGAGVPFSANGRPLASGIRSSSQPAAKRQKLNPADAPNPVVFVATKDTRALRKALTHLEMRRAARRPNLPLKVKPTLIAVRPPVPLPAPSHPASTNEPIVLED
UniProt Q14008, sequence (Q14008 whole entry): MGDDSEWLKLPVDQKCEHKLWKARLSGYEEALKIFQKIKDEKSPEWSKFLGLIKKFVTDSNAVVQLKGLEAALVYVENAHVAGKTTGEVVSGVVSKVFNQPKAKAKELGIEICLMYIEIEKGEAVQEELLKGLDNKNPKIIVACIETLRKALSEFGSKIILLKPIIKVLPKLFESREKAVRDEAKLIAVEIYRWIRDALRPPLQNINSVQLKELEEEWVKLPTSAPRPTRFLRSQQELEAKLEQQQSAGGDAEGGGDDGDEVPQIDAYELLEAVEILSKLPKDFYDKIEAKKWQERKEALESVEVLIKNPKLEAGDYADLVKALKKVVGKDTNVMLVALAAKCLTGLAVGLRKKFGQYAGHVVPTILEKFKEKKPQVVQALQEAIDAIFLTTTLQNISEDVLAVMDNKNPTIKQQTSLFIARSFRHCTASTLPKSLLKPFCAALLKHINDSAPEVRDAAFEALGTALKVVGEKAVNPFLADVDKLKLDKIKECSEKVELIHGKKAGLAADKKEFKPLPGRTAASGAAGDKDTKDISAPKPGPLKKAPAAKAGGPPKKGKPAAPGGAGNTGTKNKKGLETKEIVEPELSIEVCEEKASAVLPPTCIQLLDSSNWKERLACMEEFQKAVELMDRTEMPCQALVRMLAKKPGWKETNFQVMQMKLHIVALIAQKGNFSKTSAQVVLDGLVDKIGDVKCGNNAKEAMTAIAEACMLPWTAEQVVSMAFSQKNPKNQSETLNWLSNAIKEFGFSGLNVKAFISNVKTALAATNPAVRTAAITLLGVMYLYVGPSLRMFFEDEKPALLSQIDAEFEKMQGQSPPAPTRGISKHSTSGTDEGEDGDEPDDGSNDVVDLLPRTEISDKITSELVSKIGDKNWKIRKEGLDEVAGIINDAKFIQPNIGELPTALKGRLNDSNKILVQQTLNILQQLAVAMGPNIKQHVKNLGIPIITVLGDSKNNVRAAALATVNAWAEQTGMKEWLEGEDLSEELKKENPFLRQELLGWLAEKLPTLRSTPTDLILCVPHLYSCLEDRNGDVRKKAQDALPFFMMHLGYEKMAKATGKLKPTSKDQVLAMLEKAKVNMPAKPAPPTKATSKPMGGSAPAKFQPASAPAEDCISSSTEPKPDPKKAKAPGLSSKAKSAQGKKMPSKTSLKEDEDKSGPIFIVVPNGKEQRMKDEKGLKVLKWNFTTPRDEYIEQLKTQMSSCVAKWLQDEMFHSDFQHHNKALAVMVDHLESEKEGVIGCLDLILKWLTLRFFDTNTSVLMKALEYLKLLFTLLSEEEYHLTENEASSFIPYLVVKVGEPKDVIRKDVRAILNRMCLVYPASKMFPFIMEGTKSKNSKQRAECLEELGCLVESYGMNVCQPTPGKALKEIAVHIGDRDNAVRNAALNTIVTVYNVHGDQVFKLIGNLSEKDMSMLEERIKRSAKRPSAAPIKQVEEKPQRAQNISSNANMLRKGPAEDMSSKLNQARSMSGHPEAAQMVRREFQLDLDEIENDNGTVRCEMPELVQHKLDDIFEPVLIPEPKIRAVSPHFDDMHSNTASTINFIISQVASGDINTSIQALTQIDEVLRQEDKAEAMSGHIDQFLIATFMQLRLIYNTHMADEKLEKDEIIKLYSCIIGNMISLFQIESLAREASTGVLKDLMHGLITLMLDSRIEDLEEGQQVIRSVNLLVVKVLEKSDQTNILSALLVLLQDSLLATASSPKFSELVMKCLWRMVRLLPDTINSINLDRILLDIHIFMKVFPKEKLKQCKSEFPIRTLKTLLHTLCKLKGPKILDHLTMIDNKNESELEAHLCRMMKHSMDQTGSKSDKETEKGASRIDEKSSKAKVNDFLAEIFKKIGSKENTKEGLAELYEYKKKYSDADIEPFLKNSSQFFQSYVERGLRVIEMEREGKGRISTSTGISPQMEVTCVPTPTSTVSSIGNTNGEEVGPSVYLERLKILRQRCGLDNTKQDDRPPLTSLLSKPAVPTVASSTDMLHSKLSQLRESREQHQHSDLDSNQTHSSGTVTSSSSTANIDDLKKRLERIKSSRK
UniProt Q6NTF9, sequence (Q6NTF9 whole entry): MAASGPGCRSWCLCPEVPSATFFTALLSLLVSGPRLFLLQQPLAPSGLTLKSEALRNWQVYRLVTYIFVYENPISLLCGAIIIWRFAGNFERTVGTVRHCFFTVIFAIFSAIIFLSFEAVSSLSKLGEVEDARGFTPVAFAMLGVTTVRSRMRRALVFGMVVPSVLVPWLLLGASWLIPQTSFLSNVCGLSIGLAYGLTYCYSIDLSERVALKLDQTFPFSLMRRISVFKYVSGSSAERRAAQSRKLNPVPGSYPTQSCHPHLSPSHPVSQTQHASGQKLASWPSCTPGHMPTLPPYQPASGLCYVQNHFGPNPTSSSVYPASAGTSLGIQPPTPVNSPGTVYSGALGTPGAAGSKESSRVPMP

Target	thermal stability z-score (potassium arsenate)	thermal stability z-score (lipoamide; [1])	thermal stability z-score (lipoamide; arsenate co-treatment: none)
CLCN7 (UniProt P51798)	0.0852	-0.792	-0.489
REEP4 (UniProt Q9H6H4)	0.579	-0.55	-0.227
IL27RA (UniProt Q6UWB1)	1.33	-0.395	0.44
KPNA2 (UniProt P52292)	-0.353	0.22	-0.118
CECR5 (UniProt Q9BXW7)	0.99	-0.169	0.0959
TRIM5 (UniProt Q9C035)	0.259	0.224	0.183
VPS16 (UniProt Q9H269)	1.02	-0.305	0.0437
ZC3H7A (UniProt Q8IWR0)	-0.613	-0.124	-0.0131
MTA2 (UniProt O94776)	-0.245	0.669	0.591
VPS72 (UniProt Q15906)	-2.49	1.96	-0.00979
POLRMT (UniProt O00411)	-0.331	0.314	-0.744
PDHX (UniProt O00330)	-6.67	-0.515	-0.468
BCCIP (UniProt Q9P287)	-0.181	0.431	-0.061
H2AFZ|H2AFV	-1.63	1.28	1.33
RAD51B (UniProt O15315)	0.578	0.231	0.428
FUS (UniProt P35637)	0.635	0.844	1.27
CKAP5 (UniProt Q14008)	0.286	-0.095	-0.0102
KARS (UniProt Q15046)	1.5	-0.646	-0.663

Target	thermal stability z-score (potassium arsenate)	thermal stability z-score (lipoamide; [1])	thermal stability z-score (lipoamide; arsenate co-treatment: none)
RFK (UniProt Q969G6)	0.313	-0.697	-0.27
DVL2 (UniProt O14641)	-0.113	-0.0654	-0.194
GPX1 (UniProt P07203)	-0.087	0.0953	0.0517
ISOC1 (UniProt Q96CN7)	8.79	1.2	1.14
YWHAZ (UniProt P63104)	-0.195	0.146	-0.0541
SPAST (UniProt Q9UBP0)	0.604	-0.179	0.818
NUP214 (UniProt P35658)	0.815	-0.0103	-0.132
ACY1 (UniProt Q03154)	0.873	0.304	0.38
CTNNAL1 (UniProt Q9UBT7)	0.675	0.0967	0.168
DSG2 (UniProt Q14126)	0.99	-0.108	0.19
GTF3C3 (UniProt Q9Y5Q9)	-0.461	-0.0672	0.0153
PRMT3 (UniProt O60678)	-0.148	-0.336	0.22
USP25 (UniProt Q9UHP3)	0.667	-0.18	-0.113
CBSL|CBS	0.256	-1.81	-1.33
SAMM50 (UniProt Q9Y512)	1.08	0.182	0.601
ACTR1A (UniProt P61163)	-0.614	0.0148	0.0511
TPM4 (UniProt P67936)	-0.0802	0.31	0.407
RHBDD2 (UniProt Q6NTF9)	-0.574	-0.424	-0.384
